Melting point data for one compound are collected here from patent publication US6458793B1, “Heterocyclic derivatives which inhibit factor Xa” (Zeneca Limited, priority 1997, dated 2002).

A word on the melting point: it is the temperature, or range, at which the solid turns liquid. With `O=C(c1ccc(-c2ccncc2)nc1)N1CCN(S(=O)(=O)c2ccc3cc(Br)ccc3c2)CC1` (hydrate or solvate) [Example 1, 1-(6-bromonaphth-2-ylsulphonyl)-4-[6-(4-pyridyl)-nicotinoyl]piperazine], the melting point is 193.5 °C.
